What was measured:
[1] = system: Ebola virus GP pseudotype; type: cell-based
VSV GP pseudotype = type: cell-based, Vesicular stomatitis virus
[2] = system: Ebola virus pseudotyped VSV particles; type: cell-based
[3] = system: EBOV pseudotyped lentivirus; test: microbe, parasite or virus in culture; type: cell-based, EBOV Zaire strain
[4] = system: retrovirus pseudotypes bearing Ebola virus env; type: cell-based
[5] = system: retrovirus pseudotypes bearing eMLV (Fr-MLV) env; type: cell-based, ecotropic murine leukemia virus
[6] = system: Venezuelan equine encephalitis virus (VEEV) pseudotyped VSV particles; type: cell-based
[7] = system: wild type Ebola virus, Zaire strain; type: cell-based; details: 7 days
[8] = system: live Ebola virus (Zaire strain); type: cell-based; details: 10 days

Compound: CCN(CC)CCCC(C)Nc1nc(C)cc(Nc2ccc3nc(C)cc(N)c3c2)n1 (racemic) [Rac1 inhibitor]
- entry of Ebola virus GP pseudotype (luciferase activity) [1]: inhibits Ebola virus entry
- entry of VSV GP pseudotype (luciferase activity) (VSV GP pseudotype): unaffected

Compound: COc1ccc([C@@H]2Sc3ccccc3N(CCN(C)C)C(=O)[C@@H]2OC(C)=O)cc1 [Diltiazem]
- infection by virus-like particles bearing Ebola virus env (GFP-expressing cells) [2]: potent and specific blockers

Compound: COc1ccc(S(=O)(=O)Nc2ccccc2CN(C)C/C=C/c2ccc(Cl)cc2)cc1 [KN-92]
- reduction in infection by the pseudotyped virus [3]: ~50%
- infection of the VSV core EBOV pseudotyped virus [2]: not

Compound: COc1ccc(S(=O)(=O)N(CCO)c2ccccc2CN(C)C/C=C/c2ccc(Cl)cc2)cc1 [KN-93]
- infection by retrovirus pseudotype bearing Ebola virus env (luciferase activity) [4]: strong effect
- infection by retrovirus pseudotype bearing eMLV env (luciferase activity) [5]: blocking only the Ebola infection
- infection of the VSV core EBOV pseudotyped virus [2]: significantly impacted
- infection with Ebola virus pseudotyped VSV particles ([2]; 10 μM): specifically blocked infection

Compound: O=c1cc(N2CCOCC2)oc2c(-c3ccccc3)cccc12 [LY294002]
- IC50 ([3]; Zaire ebolavirus, HEK293, read-out: IC50 value for infection of EBOV pseudotyped lentivirus): 6.5 ± 1.1 µM

Compound: COCCOC(=O)C1=C(C)NC(C)=C(C(=O)OC(C)C)C1c1cccc([N+](=O)[O-])c1 (stereo not shown) [Nimodopine]
- Ebola virus-like particle infection/entry, calmodulin inhibitors and L-channel blocking drugs [2]: effective

Compound: CC(COc1ccccc1)N(CCCl)Cc1ccccc1 (stereo not shown) [Phenoxybenzamine]
- Ebola virus-like particle infection/entry, calmodulin inhibitors and L-channel blocking drugs [2]: inhibited
- Venezuelan equine encephalitis virus-like particle infection [6]: not

Compound: COc1ccc2cc1Oc1ccc(cc1)C[C@H]1c3cc(c(OC)cc3CCN1C)Oc1c(OC)c(OC)cc3c1[C@H](C2)N(C)CC3 [Tetrandine]
- infection by virus-like particles bearing Ebola virus env (GFP-expressing cells) [2]: potent and specific blockers

Compound: CN1CCN(CCCN2c3ccccc3Sc3ccc(C(F)(F)F)cc32)CC1 [Trifluorperazine]
- Ebola virus-like particle infection/entry, calmodulin inhibitors and L-channel blocking drugs [2]: inhibited
- Venezuelan equine encephalitis virus-like particle infection [6]: not

Compound: N#CC(=C(/N)Sc1ccccc1N)/C(C#N)=C(\N)Sc1ccccc1N [U0126]
- entry of Ebola virus GP pseudotype (luciferase activity) [1]: not

Compound: COc1ccc(CCN(C)CCCC(C#N)(c2ccc(OC)c(OC)c2)C(C)C)cc1OC (stereo not shown) [Verapamil]
- Ebola virus-like particle infection/entry, calmodulin inhibitors and L-channel blocking drugs [2]: highly effective
- Ebola virus induced cytopathic effect [7]: reduced or significantly prevented

Compound: NCCCCCCNS(=O)(=O)c1cccc2c(Cl)cccc12 [W7]
- Ebola virus-like particle infection/entry, calmodulin inhibitors and L-channel blocking drugs [2]: inhibited
- Venezuelan equine encephalitis virus-like particle infection [6]: not

Compound: Cl.N [ammonium chloride]
- entry of Ebola virus GP pseudotype (luciferase activity), assay validation [1]: sensitive

Compound: CO/C1=C\C(C)=C\[C@@H](C)[C@@H](O)[C@@H](C)C/C(C)=C/C=C/[C@H](OC)[C@@H]([C@@H](C)[C@@H](O)[C@H](C)[C@@]2(O)C[C@@H](O)[C@H](C)[C@@H](C(C)C)O2)OC1=O [bafilomycin A1]
- entry of Ebola virus GP pseudotype (luciferase activity), assay validation [1]: sensitive

Compound: Methoxyverapamil
- Ebola virus-like particle infection/entry, calmodulin inhibitors and L-channel blocking drugs [2]: highly effective
- infection of live Ebola Zaire virus (plaque numbers normalized to DMSO) [8]: inhibition of infection

Reference: US8889743B2 (priority 2007, dated 2014)
